Test results taken from ChEMBL document CHEMBL1201862, “PubChem BioAssay data set” (2004).
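Briefly, cells in 96-well plates were exposed to five compound concentrations for 48 h, and endpoints were estimated by linear interpolation. GI50 is the concentration that inhibits growth by half.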 Active and inactive are the calls of the source. No stated cut-off is given here; in the data, active = GI50 up to about 1.1 µM and inactive = higher.

How the values were obtained:
Assay in all cases: NCI-60 cell line screen, 48 h
786-0 = system: 786-0
A549 = system: A549
ACHN = system: ACHN
BT-549 = system: BT-549
COLO 205 = system: COLO 205
DLD-1 = system: DLD-1
DMS-114 = system: DMS-114
DMS-273 = system: DMS-273
DU-145 = system: DU-145
EKVX = system: EKVX
HCC 2998 = system: HCC 2998
HCT-116 = system: HCT-116
HCT-15 = system: HCT-15
HL-60 = system: HL-60
HOP-18 = system: HOP-18
HOP-92 = system: HOP-92
HT-29 = system: HT-29
Hs-578T = system: Hs-578T
IGROV-1 = system: IGROV-1
K562 = system: K562
KM-20L2 = system: KM-20L2
LOX IMVI = system: LOX IMVI
LXFL 529 = system: LXFL 529
M14 = system: M14
M19-MEL = system: M19-MEL
MCF7 = system: MCF7
MDA-MB-231 = system: MDA-MB-231
MDA-MB-435 = system: MDA-MB-435
MDA-N = system: MDA-N
MOLT-4 = system: MOLT-4
Malme-3M = system: Malme-3M
NCI-H226 = system: NCI-H226
NCI-H23 = system: NCI-H23
NCI-H460 = system: NCI-H460
NCI-H522 = system: NCI-H522
NCI/ADR-RES = system: NCI/ADR-RES
OVCAR-3 = system: OVCAR-3
OVCAR-4 = system: OVCAR-4
OVCAR-5 = system: OVCAR-5
RXF 393 = system: RXF 393
RXF 631 = system: RXF 631
SF-268 = system: SF-268
SF-295 = system: SF-295
SF-539 = system: SF-539
SK-MEL-28 = system: SK-MEL-28
SK-MEL-2 = system: SK-MEL-2
SK-MEL-5 = system: SK-MEL-5
SN12C = system: SN12C
SNB-19 = system: SNB-19
SNB-75 = system: SNB-75
SNB-78 = system: SNB-78
SR = system: SR
SW-620 = system: SW-620
T47D = system: T47D
TK-10 = system: TK-10
U-251 = system: U-251
UACC-257 = system: UACC-257
UACC-62 = system: UACC-62
UO-31 = system: UO-31
XF498 = system: XF498

Compound: COc1cccc2c1[C@H]1CO[C@H]3C4C[C@H](C(=O)O)C([C@@H](C2)N13)N4C (stereo not given in full)
- GI50 (786-0): 1300 nM (inactive)
- GI50 (A549): 8180 nM (inactive)
- GI50 (ACHN): 3850 nM (inactive)
- GI50 (BT-549): 116 nM (active)
- GI50 (COLO 205): 1600 nM (inactive)
- GI50 (DLD-1): 2840 nM (inactive)
- GI50 (DMS-114): 2220 nM (inactive)
- GI50 (DMS-273): 3600 nM (inactive)
- GI50 (DU-145): 42.3 nM (active)
- GI50 (EKVX): 4740 nM (inactive)
- GI50 (HCC 2998): 2580 nM (inactive)
- GI50 (HCT-116): 2530 nM (inactive)
- GI50 (HCT-15): 1670 nM
- GI50 (HL-60): 1620 nM (inactive)
- GI50 (HOP-18): 6120 nM (inactive)
- GI50 (HOP-92): 1660 nM (inactive)
- GI50 (HT-29): 2130 nM (inactive)
- GI50 (Hs-578T): 76.9 nM (active)
- GI50 (IGROV-1): 4510 nM (inactive)
- GI50 (K562): 1470 nM (inactive)
- GI50 (KM-20L2): 3240 nM (inactive)
- GI50 (LOX IMVI): 1360 nM (inactive)
- GI50 (LXFL 529): 2270 nM (inactive)
- GI50 (M14): 4990 nM (inactive)
- GI50 (M19-MEL): 3640 nM (inactive)
- GI50 (MCF7): 491 nM (active)
- GI50 (MDA-MB-231): 205 nM (active)
- GI50 (MDA-MB-435): 53.3 nM (active)
- GI50 (MDA-N): 170 nM (active)
- GI50 (MOLT-4): 1690 nM (inactive)
- GI50 (Malme-3M): 2610 nM (inactive)
- GI50 (NCI-H226): 1290 nM (inactive)
- GI50 (NCI-H23): 1790 nM (inactive)
- GI50 (NCI-H460): 3930 nM (inactive)
- GI50 (NCI-H522): 294 nM (active)
- GI50 (NCI/ADR-RES): 764 nM (active)
- GI50 (OVCAR-3): 1380 nM (inactive)
- GI50 (OVCAR-4): 5000 nM (inactive)
- GI50 (OVCAR-5): 2370 nM (inactive)
- GI50 (RXF 393): 1190 nM (inactive)
- GI50 (RXF 631): > 10000 nM (inactive)
- GI50 (SF-268): 1790 nM (inactive)
- GI50 (SF-295): 7100 nM (inactive)
- GI50 (SF-539): 1560 nM (inactive)
- GI50 (SK-MEL-28): 2100 nM (inactive)
- GI50 (SK-MEL-2): 1080 nM (active)
- GI50 (SK-MEL-5): 1880 nM (inactive)
- GI50 (SN12C): 1990 nM (inactive)
- GI50 (SNB-19): 2910 nM (inactive)
- GI50 (SNB-75): 1480 nM (inactive)
- GI50 (SNB-78): 3720 nM (inactive)
- GI50 (SR): 1140 nM (inactive)
- GI50 (SW-620): 1980 nM (inactive)
- GI50 (T47D): 242 nM (active)
- GI50 (TK-10): 3280 nM (inactive)
- GI50 (U-251): 1410 nM (inactive)
- GI50 (UACC-257): 1910 nM (inactive)
- GI50 (UACC-62): 1120 nM (inactive)
- GI50 (UO-31): 1540 nM (inactive)
- GI50 (XF498): 2080 nM (inactive)
